Experimental data as given in patent US10765648B2, “iNKT cell modulators and methods of using the same” (LUDWIG INSTITUTE FOR CANCER RESEARCH, priority 2011, dated 2020).

Key:
human dendritic cells = assay: Lysis of monocyte-derived dendritic cells cultured with human iNKT cells and lipid, PI staining; assay type: cell-based; settings: 40 hours; for dendritic cell killing: various concentrations
Description: Monocyte-derived dendritic cells and human iNKT cells were cultured with various concentrations of each lipid for 40 hours and then PI stained to determine percent dendritic cell lysis (and percent survival).

iNKT cells = assay: In vivo anergy of iNKT cells after lipid preconditioning; parameters: species or system mice; settings: for iNKT cell anergy (IFNγ 18 h after OVA and alphaGalCer at day zero): preconditioned with 100 ng lipid at day −28
Description: The following experiment was designed to assess the in vivo anergy of iNKT cells as defined by their ability to enhance antigen-specific T- and B-cell responses. Mice were pre-conditioned at day −28 with individual lipids shown in FIG. 12 (100 ng i.v. of either alphaGalCer, IMM47, IMM60, or IMM70). Eighteen hours later, mice were bled to assess iNKT cell activation, as defined by IFN-gamma (determined by ELISA(eBioscience)), results shown in FIG. 13. At day zero (28 days after lipid preconditioning), expression of the iNKT cell activation marker PD1 was measured in splenic iNKT cells (FIG. 14).
Eighteen hours later, iNKT cell activation was analyzed by IFNγ expression by ELISA (FIG. 15). At day 7, T cell responses were analyzed (FIG. 16).

[1] = tested on: EG7 cells (EL4 cells transfected with full length ovalbumin); assay: EG7 tumor regression in mice immunized with OVA plus lipid; assay type: in vivo; settings: 800 μg OVA plus lipid four days after 1×10^6 EG7 cells
Description: Mice were injected with 1×10^6 EG7 cells (EL4 cells transfected with full length ovalbumin).

[2] = molecular target: T1, human iNKT cell TCRs for hCD1d loaded with lipid (Homo sapiens, UniProt P15813); assay: SPR of soluble human iNKT TCR binding to hCD1d-lipid complexes
T1 construct: made in house
T1 sequence (P15813 20-301 limits assumed): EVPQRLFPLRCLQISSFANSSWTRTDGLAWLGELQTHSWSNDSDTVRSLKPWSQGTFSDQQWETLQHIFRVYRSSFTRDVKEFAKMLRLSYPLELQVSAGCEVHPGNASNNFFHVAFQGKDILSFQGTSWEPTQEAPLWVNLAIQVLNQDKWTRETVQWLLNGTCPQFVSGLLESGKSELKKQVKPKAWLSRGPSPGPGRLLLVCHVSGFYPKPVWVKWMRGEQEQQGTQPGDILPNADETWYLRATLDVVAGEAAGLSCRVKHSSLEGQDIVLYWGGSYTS
From the text: The binding kinetics of these ThrCer and α-GalCer analogue compounds were examined. To this end, bacterially-expressed hCD1d and β-2-microglobulin (β 2 M) molecules were refolded with the thioamide, and carbamate analogues of both α-GalCer and ThrCer by oxidative refolding chromatography, and then biotinylated. The urea analogues of α-GalCer and ThrCer could not be refolded, and therefore, no surface plasmon resonance (SPR) data are available for these molecules. Soluble human iNKT TCR was prepared. SPR experiments were used to measure the affinity and kinetics of human iNKT cell TCRs for hCD1d loaded with α-GalCer, ThrCer, and their thioamide and carbamate analogues (FIGS. 5A-5B). To this end, increasing concentrations of TCR were injected for 5 seconds over the indicated complex immobilized on the BIAcore chip until the specific binding reached its plateau. Kd and Bmax were calculated by fitting the data using non-linear regression binding kinetics model (FIGS. 5A-5B). Kinetic measurements for the koff were calculated using BIAevaluation software kit; kon values were calculated from the experimental koff and Kd.
Protein expression and purification: hCD1d and β2m were refolded with α-GalCer, IMM47, IMM60, IMM70 or IMM80 by oxidative chromatography. In summary, CD1d and β2m were overexpressed in E. coli BL21 using a prokaryotic expression system (Novagen, UK). […]

iNKT cell TCR = molecular target: T2, iNKT cell TCR (Homo sapiens, UniProt P15813); settings: cited from earlier work
T2 sequence (P15813 20-301 limits assumed): T1 sequence (P15813 20-301 limits assumed)

With `CCCCCCCCCCCCCCCCCCCCCCCCCC(=O)N[C@@H](COC[C@H](O)[C@@H](O)CO)[C@H](O)[C@H](O)CCCCCCCCCCCCCC` [ThrCer 2, threitolceramide] as the molecule, how does the dendritic cell killing (human dendritic cells) read?
Its dendritic cell killing is “lowest dendritic cell killing”.

What about the “iNKT cell anergy (IFNγ 18 h after OVA and alphaGalCer at day zero)” value (“iNKT cell anergy” for short) (iNKT cells) of the same molecule?
Its value is “weakest iNKT cell anergy”.

With `CCCCCCCCCCCCCCCCCCCCCCCCCC(=O)N[C@H](CO[C@H]1CCC[C@H](O)[C@H](O)[C@H]1O)[C@@H](O)[C@@H](O)CCCCCCCCCCCCCC` [IMM70, N-((2R,3R,4S)-3,4-dihydroxy-1-(((1S,2R,3S,4S)-2,3,4-trihydroxycycloheptyl)oxy)octadecan-2-yl)hexacosanamide] as the molecule, how does the “percentage of DC lysis” value (human dendritic cells; concentrations lower than 5 ng/ml) read?
Its value is “very similar to the results obtained with IMM47”.

And the T-cell response (iNKT cells; day 7 after immunization of preconditioned mice)?
Its T-cell response is “highest T-cell response”.

What about the “iNKT cell anergy” value (iNKT cells) of the same molecule?
Its value is “functional iNKT cells”.

Which dendritic cell killing (human dendritic cells) does the source give for `CCCCCCCCCCCCCCCCCCCCCCCCCC(=O)N[C@H](CO[C@H]1CC[C@H](O)[C@H](O)[C@H]1O)[C@@H](O)[C@@H](O)CCCCCCCCCCCCCC` [IMM60, N-((2R,3R,4S)-3,4-dihydroxy-1-(((1S,2R,3S,4S)-2,3,4-trihydroxycyclohexyl)oxy)octadecan-2-yl)hexacosanamide] here?
Its dendritic cell killing is “highest dendritic cell killing”.

And the “regression of established tumour” value [1]?
The value was “induced regression of the established tumour”.

What about the “iNKT cell activation (IFN-gamma at 18 h, PD1 at 28 days)” value (iNKT cells; 100 ng i.v. preconditioning at day −28) of the same molecule?
The value was “stronger iNKT cell activation than IMM47, IMM70, or even alphaGalCer”.

What about the “iNKT cell anergy” value (iNKT cells) of the same molecule?
The value was “highest iNKT cell anergy”.

For `CCCCCCCCCCCCCCCCCCCCCCCCCC(=O)N[C@@H](CO[C@H]1O[C@H](CO)[C@H](O)[C@H](O)[C@H]1O)[C@H](O)[C@H](O)CCCCCCCCCCCCCC` [α-GalCer 1, α-galactosylceramide], which kon ([2]; calculated from experimental koff and Kd) is on record?
The kon was 2580 ± 90 M⁻¹ s⁻¹.

What about the koff ([2]; lipid on CD1d, read-out: experimental koff) of the same molecule?
The koff was 0.565 ± 0.008 s⁻¹.

And the “iNKT cell anergy” value (iNKT cells)?
The value was “highest iNKT cell anergy”.

For `CCCCCCCCCCCCCCCCCCCCCCCC(=O)NC(COC1OC(CO)C(O)C(O)C1O)C(O)C(O)CCCCC` (stereo not shown) [OCH9 12], which Kd (iNKT cell TCR; OCH9 on CD1d) is on record?
Its Kd is 123 ± 9.08 µM.

What about the “k0 (on rate)” value (iNKT cell TCR; OCH9 on CD1d) of the same molecule?
Its value is 23000 ± 1000 M⁻¹ s⁻¹.

And the koff (iNKT cell TCR; OCH9 on CD1d)?
The koff was 2.67 ± 0.12 s⁻¹.

And the “interaction with iNKT cell TCRs” value (iNKT cell TCR; recent study, versus α-GalCer)?
The value was “weaker interactions than α-GalCer”.
